The numbers were not newly measured in patent publication US7560455B2, “3-Amino-4-phenylbutanoic acid derivatives as dipeptidyl peptidase inhibitors for the treatment or prevention of diabetes” (Merck & Co., Inc., priority 2003, dated 2009), which cites them from elsewhere.

One series concerns cardiac allograft. The settings on record: rats; doubled from day 7 to day 14.
In another series the test system is hematopoiesis. The note with it: mouse, cyclophosphamide-induced neutropenia.
A further series addresses T1, DP-IV (Homo sapiens, UniProt P27487).
T1 construct: GRF is rapidly degraded in plasma to GRF[3-44]

T1 sequence (P27487 whole entry): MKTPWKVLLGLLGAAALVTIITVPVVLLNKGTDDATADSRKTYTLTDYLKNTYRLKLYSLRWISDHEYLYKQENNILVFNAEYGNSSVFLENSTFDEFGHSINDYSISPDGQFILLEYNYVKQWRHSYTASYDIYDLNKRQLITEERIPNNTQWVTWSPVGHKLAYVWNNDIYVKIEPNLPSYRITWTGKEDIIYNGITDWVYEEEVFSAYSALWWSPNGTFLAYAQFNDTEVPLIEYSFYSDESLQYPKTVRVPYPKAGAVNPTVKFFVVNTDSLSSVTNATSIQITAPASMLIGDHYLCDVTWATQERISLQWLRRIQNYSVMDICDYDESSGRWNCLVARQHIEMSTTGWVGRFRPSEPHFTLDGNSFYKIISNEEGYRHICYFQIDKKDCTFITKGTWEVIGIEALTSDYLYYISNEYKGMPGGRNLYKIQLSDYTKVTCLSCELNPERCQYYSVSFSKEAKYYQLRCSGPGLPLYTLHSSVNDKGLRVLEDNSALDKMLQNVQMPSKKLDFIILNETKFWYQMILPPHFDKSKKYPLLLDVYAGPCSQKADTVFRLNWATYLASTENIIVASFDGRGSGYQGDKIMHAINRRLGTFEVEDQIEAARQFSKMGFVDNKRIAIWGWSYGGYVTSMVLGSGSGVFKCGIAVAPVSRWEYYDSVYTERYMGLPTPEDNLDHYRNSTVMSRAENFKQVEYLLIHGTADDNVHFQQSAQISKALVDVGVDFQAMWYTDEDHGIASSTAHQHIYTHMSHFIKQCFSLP

With `CC(C)N1CCC(c2ccccc2)(c2ccccc2)CC1` [Prodipine, Pro-Pro-diphenyl-phosphonate], the cardiac allograft survival in the series with cardiac allograft is listed as 14 day. With `CC(C)[C@H](N)C(=O)N1CCC[C@H]1B(O)O` [Val-Boro-Pro], the effect on hematopoiesis entry in the series with hematopoiesis was “stimulated hematopoiesis”. Regarding diprotin A, the “effect on degradation of GRF in plasma to GRF[3-44]” value at DP-IV is reported as “prevented”.
